In a melting point compilation (Tetko et al.; mined from patent text by program, amines drawn as free bases though some values may be those of a salt):

Q: With `Fc1ccc(C2CC(n3cncn3)c3ccccc3N2)cc1` (configuration not stated) as the compound, how does the melting point read?
A: Its melting point is 184 to 186 °C.

Q: With `C[C@@H](n1cnc2cc(F)c(F)cc2c1=O)[C@](O)(Cn1cncn1)c1ccc(F)cc1F` as the compound, how does the melting point read?
A: Its melting point is 212 to 213 °C.

Q: With `CC(C)C1Oc2ccccc2NC1=O` (configuration not stated) as the compound, how does the melting point read?
A: The melting point was 118 to 119 °C.

Q: Which melting point does the source give for `Cn1nc(-c2cccnc2)nc1-c1cccnc1` here?
A: The melting point was 148 to 149 °C.

Q: Which melting point does the source give for `Cc1cc(=O)[nH]c2cc(O)cc(O)c12` here?
A: Its melting point is greater than 300 °C.

Q: With `C/C(NC1CCCCCC1)=C(\C#N)C(N)=S` as the compound, how does the melting point read?
A: The melting point was 132 to 134 °C.

Q: For `CCCCCCCCCCOc1cnc(-c2ccc(C(C)O)cc2)nc1` (single isomer, unassigned; (+)), which melting point is on record?
A: The melting point was 65 to 66 °C.

Q: For `Cc1ccsc1C=Nc1cc([N+](=O)[O-])ccc1O`, which melting point is on record?
A: Its melting point is 169 to 171 °C.

Q: For `O=C(O)C1=CC(CF)(CF)Oc2ccc(C(F)(F)C(F)(F)F)cc21`, which melting point is on record?
A: Its melting point is 173 to 174 °C.

Q: For `O=C(Nc1ccc(-c2ccccc2)cc1C(=O)O)OCc1cc2cc(-c3ccccc3)ccc2o1`, which melting point is on record?
A: Its melting point is 226 °C.

Q: With `O=C(O)C1C=CCn2c(=O)n(CO)c(=O)n21` (configuration not stated) as the compound, how does the melting point read?
A: The melting point was 175 to 178 °C.

Q: For `CC12CCC(O)CC1CCC1C2CCC2(CN3CCOCC3)C(O)C(N3CCCC3)CC12` (configuration not stated), which melting point is on record?
A: The melting point was 218 °C.

Q: For `CCc1ccnc(C(=O)c2[nH]c3cc(Cl)ccc3c2CC(=O)O)c1Cl`, which melting point is on record?
A: Its melting point is 158 °C.

Q: With `C#CC1(Oc2ccccc2[N+](=O)[O-])CCN(C(C)=O)CC1` as the compound, how does the melting point read?
A: Its melting point is 112 to 115 °C.

Q: For `CCc1c(Br)c2ccccn2c1C(=O)c1ccc(O)cc1`, which melting point is on record?
A: The melting point was 160 to 162 °C.

Q: Which melting point does the source give for `O=C(Cl)N1CCN(c2ccccc2)CC1` here?
A: Its melting point is 79.5 °C.

Q: For `ON=Cc1c(-c2ccccc2Br)ccc2c1OCO2`, which melting point is on record?
A: The melting point was 168 to 169 °C.

Q: Which melting point does the source give for `COCCOc1ccc2c(c1)OCC21C(=O)Nc2ccccc21` (configuration not stated) here?
A: The melting point was 172 to 174 °C.

Q: For `COC(=O)CC(C#N)(C(=O)OC)c1cccc2ccc(OC)cc12` (configuration not stated), which melting point is on record?
A: Its melting point is 119 to 121 °C.

Q: With `CCCCCCCCCCCCCCc1ccc(S(=O)(=O)Nc2nncs2)cc1` as the compound, how does the melting point read?
A: The melting point was 116 to 117 °C.

Q: With `CCCCCS(=O)(=O)NC(=O)/C=C/c1ccc(C)n1Cc1ccc(Cl)cc1Cl` as the compound, how does the melting point read?
A: Its melting point is 189 to 190 °C.

Q: For `COc1cccc(-c2ccc(C(O)C(F)(F)F)cc2)c1` (configuration not stated), which melting point is on record?
A: Its melting point is 108 °C.

Q: For `CC(C)(CC(C)(c1ccc(O)cc1)c1ccc(O)cc1)c1ccc(O)cc1`, which melting point is on record?
A: Its melting point is 150 to 151 °C.

Q: With `COc1ccc(Br)c2c1CC(NC(C1CC1)C1CC1)CC2` (single isomer, unassigned; (-)) as the compound, how does the melting point read?
A: Its melting point is 153 to 154 °C.

Q: Which melting point does the source give for `CCc1cc(C(=O)c2ccccc2Cl)c(NC)s1` here?
A: Its melting point is 100 to 102 °C.

Q: For `COc1cc(Nc2c(C#N)cnc3cc(-c4ccc(C(N)=O)cc4)sc23)c(Cl)cc1Cl`, which melting point is on record?
A: Its melting point is greater than 300 °C.

Q: Which melting point does the source give for `COc1ccc(CNc2nc(NCCCc3ccc(C(C)(C)O)cc3)nc3ncccc23)cc1OC` here?
A: The melting point was 198 to 199 °C.

Q: Which melting point does the source give for `Cc1noc2cc3c(cc12)C1(CO3)C(=O)N(Cc2nc(C(=O)N(C)C)co2)c2ccccc21` (configuration not stated) here?
A: Its melting point is 87 to 89 °C.

Q: Which melting point does the source give for `COc1ccc(C2C3=C(COC3=O)Nc3ccc4cc[nH]c4c32)cc1O` (configuration not stated) here?
A: The melting point was 297 to 299 °C.

Q: For `Cc1c(C(=O)Cl)cccc1[N+](=O)[O-]`, which melting point is on record?
A: The melting point was 68 to 70 °C.

Q: Which melting point does the source give for `Cc1ccccc1OCC1COC(Cn2ccnc2)(c2ccc(Cl)cc2Cl)O1` (configuration not stated) here?
A: Its melting point is 138 °C.

Q: Which melting point does the source give for `CCCc1c(C(=O)CC(C)OC)c2ccc(C(N)=O)cc2n1Cc1cc2c(cc1Cl)OCO2` (configuration not stated) here?
A: Its melting point is 190 to 192 °C.

Q: Which melting point does the source give for `Nc1c(Cl)cc(Nc2ncnc3cnc(N[C@H]4CC[C@H](C(=O)O)CC4)nc23)cc1Cl` here?
A: Its melting point is 339 °C.

Q: Which melting point does the source give for `CCc1ccccc1-c1cn(C)cc(-c2cccc(C(F)(F)F)c2)c1=O` here?
A: The melting point was 123 to 125 °C.

Q: With `CCCCc1ccc(CCc2cc3c(s2)-n2c(C)nnc2CN=C3c2ccccc2Cl)cc1` as the compound, how does the melting point read?
A: Its melting point is 119 to 121 °C.

Q: With `COC(=O)c1ccc(Cc2cc3cc(C(F)(F)F)ccc3[nH]2)cc1` as the compound, how does the melting point read?
A: The melting point was 127 °C.

Q: With `COc1cccc(Sc2cccc(N)c2C#N)c1` as the compound, how does the melting point read?
A: The melting point was 79 to 81 °C.

Q: Which melting point does the source give for `Cn1cc(C(=O)NCc2ccc(Cl)cc2)c(=O)c2scc(COCC[Si](C)(C)C)c21` here?
A: The melting point was 135 to 136 °C.

Q: For `C=C1C(=O)c2ccccc2OC1c1ccc([N+](=O)[O-])cc1` (configuration not stated), which melting point is on record?
A: Its melting point is 135 to 136 °C.

Q: Which melting point does the source give for `O=C(NCCCO)c1cccc(Nc2nccc(-c3ccnc(NCCCO)c3)n2)c1` here?
A: The melting point was 153 to 154 °C.

Q: Which melting point does the source give for `CNc1ccc(CN2C(=O)C(C)(c3ccccc3Cl)c3cc(Cl)ccc32)c(OC)c1` (configuration not stated) here?
A: The melting point was 226 °C.

Q: For `CCOC(=O)c1c(C)nc(N2CCCCC2)c2nccnc12`, which melting point is on record?
A: Its melting point is 73 to 74 °C.

Q: Which melting point does the source give for `CC(=O)NC(CF)COC1CCN(c2nc3ccc(OCC4CC4)cc3o2)CC1` (configuration not stated) here?
A: The melting point was 120 to 121 °C.

Q: With `CN(C(=O)OC(C)(C)C)C1C2CCC1CN(CC(O)COc1ccc(C#N)cc1)C2` (configuration not stated) as the compound, how does the melting point read?
A: The melting point was 109 to 112 °C.

Q: For `CC(=O)N1N=C(c2ccc(N)c(C)c2)c2cc(Cl)ccc2C=C1C`, which melting point is on record?
A: Its melting point is 209 to 211 °C.

Q: For `CC(C)Oc1c(-c2ccc(S(C)(=O)=O)cc2)cnn(-c2ccc(F)cc2)c1=O`, which melting point is on record?
A: Its melting point is 135 to 137 °C.

Q: Which melting point does the source give for `Cc1cc(Nc2ccc(C(F)(F)F)cc2C(=O)O)n(-c2ccccn2)n1` here?
A: The melting point was 228 to 229 °C.

Q: With `O=C(O)c1cc(Oc2ccccc2)ccc1O` as the compound, how does the melting point read?
A: The melting point was 126 to 128 °C.

Q: With `COC(=O)/C(=C/c1ccc2[nH]ccc2c1)N=[N+]=[N-]` as the compound, how does the melting point read?
A: Its melting point is 130 to 133 °C.

Q: For `CC=CCSc1cc(C(=O)O)cc(N)c1-c1ccccc1`, which melting point is on record?
A: The melting point was 102 to 104 °C.

Q: Which melting point does the source give for `O=C(C=Cc1cc(O)c(O)c([N+](=O)[O-])c1)c1ccccc1` here?
A: Its melting point is 192 to 195 °C.

Q: With `COc1ccc(-c2cc(C)cn2-c2ccc(S(N)(=O)=O)cc2)cc1C` as the compound, how does the melting point read?
A: The melting point was 149 to 151 °C.

Q: For `Cc1cc(NC(=O)C(CS)Cc2ccccc2)cc(C(=O)O)c1` (configuration not stated), which melting point is on record?
A: Its melting point is 177 to 178 °C.

Q: For `CC(C)(O)COc1c(-c2ccc(S(N)(=O)=O)cc2)cnn(-c2ccc(F)cc2)c1=O`, which melting point is on record?
A: Its melting point is 155 to 158 °C.

Q: Which melting point does the source give for `CC1(CN2CCC(=O)CC2)Cn2cc([N+](=O)[O-])nc2O1` (configuration not stated) here?
A: Its melting point is 124 to 126 °C.

Q: With `O=C(O)Cc1cc(-c2ccccc2)sc1NC(=O)c1ccccc1` as the compound, how does the melting point read?
A: The melting point was 121 to 122 °C.

Q: For `COC(=O)C(CCCN(C)CCc1ccc(OC)c(OC)c1)c1ccc(OC)c(OC)c1` (configuration not stated), which melting point is on record?
A: Its melting point is 112 to 114 °C.

Q: Which melting point does the source give for `CCC=NNC=C(C(=O)OCC)C(=O)c1cc(F)c(F)c(F)c1F` here?
A: The melting point was 86 °C.

Q: Which melting point does the source give for `O=C1N=C2C=CC=CN2C1(Cc1ccccc1)Cc1ccc(F)cc1` (configuration not stated) here?
A: The melting point was greater than 300 °C.

Q: For `COC(=O)C(C#N)=CC(C)=CN(C)C`, which melting point is on record?
A: Its melting point is 163 to 164 °C.

Q: For `COc1ccc(C(C#N)Cc2cc(OC)c(OC)c(OC)c2)cc1` (configuration not stated), which melting point is on record?
A: The melting point was 102 to 103 °C.

Q: For `CCCCn1c(=O)cnn(-c2ccc(N3CCN(c4ccc(O)cc4)CC3)cc2)c1=O`, which melting point is on record?
A: Its melting point is 202 °C.

Q: For `CCOC(=O)C1CCN(c2nnc(-c3ccc(C)cc3)c(-c3ccc(C)cc3)n2)CC1`, which melting point is on record?
A: The melting point was 102 to 104 °C.

Q: For `CC(=O)C(C(=O)NS(=O)(=O)c1ccc(C)cc1)C(=O)c1ccccc1` (configuration not stated), which melting point is on record?
A: The melting point was 114 to 116 °C.

Q: With `CC(C#N)c1ccc(O)c(N)c1` (configuration not stated) as the compound, how does the melting point read?
A: Its melting point is 110 to 112 °C.

Q: For `CC(=O)Nc1ccc(C2=NN(C(=O)C3CC3)C(C)Cc3cc4c(cc32)OCO4)cc1` (configuration not stated), which melting point is on record?
A: The melting point was 242 to 243 °C.

Q: For `O=C(O)C(Cl)(Cl)CCCCCCCCCCCCCCBr`, which melting point is on record?
A: Its melting point is 61 to 63 °C.

Q: Which melting point does the source give for `CNC(=O)[C@H]1CN(c2ccc3c(c2)oc(=O)n3C)C(=O)O1` here?
A: The melting point was 304 to 306 °C.

Q: For `CC(C)(C)OC(=O)Nc1ccsc1CC(=O)O`, which melting point is on record?
A: The melting point was 70 to 72 °C.

Q: For `COc1cc(C#N)ccc1C1=CC(C)(C)Oc2ccc(C#N)cc21`, which melting point is on record?
A: The melting point was 137 to 139 °C.

Q: For `COCCNC(=O)c1cccc(-c2cccc3c(C)c(Cc4cccc(C(F)(F)F)c4)sc23)c1`, which melting point is on record?
A: The melting point was 135 to 136 °C.

Q: Which melting point does the source give for `CN(C)CC(=O)N1c2ccccc2N(C)S(=O)(=O)c2ccc(Cl)cc21` here?
A: The melting point was 138 to 139 °C.
